# System: CHEAL (common lambsquarters)
# Assay: Pre-emergence herbicidal activity, warm season
# Format: in vivo, Chenopodium album
# Settings: GR80 = lowest tested rate (300, 100, 30, 10 g/ha) with 80% or greater inhibition; approx. 14 days after treating; 30/21° C.
# Method in brief: (§1)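 Seeds sown in sterilised fertilised topsoil received surface-applied compound in 50:50 acetone/water, typically at 300, 100, 30 and 10 g/ha, then greenhouse-grown at 30/21° C (warm-season species) or 18/13° C (cool-season species). Percent inhibition versus untreated plants was scored at about 14 days, giving GR80; an asterisk marks activity short of 80% at the top rate.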
row,SMILES,Pre-emergence activity (GR80) CHEAL [g/ha]
1,O=C(N1CCCC1)n1cnc(S(=O)(=O)C(F)F)n1 [Example 24],300
2,CN(Cc1ccccc1)C(=O)n1cnc(S(=O)(=O)C(F)(F)Cl)n1 [Example 92],300

# System: CONAR (field bindweed)
# Assay: Pre-emergence herbicidal activity, warm season
# Format: in vivo, Convolvulus arvensis
# Settings: GR80 = lowest tested rate (300, 100, 30, 10 g/ha) with 80% or greater inhibition; approx. 14 days after treating; 30/21° C.
# Experimental: (§2) Tables 5 to 8 summarize results of tests conducted as described below to determine the pre-emergence herbicidal activity, in the form of a GR80 value, of illustrative compounds of this invention. […] Compounds of the invention were typically applied at rates of 300, 100, 30, and 10 g/ha. Where herbicidal activity was evident but 80% inhibition was not achieved at the highest rate tested, an asterisk (*) is shown in the following tables.
# (§3) The pre-emergence tests were conducted by the following procedure. Topsoil was sieved to pass through a 1.27 cm screen. Fertilizer was added to the topsoil and the mixture was then sterilized by heating. The topsoil mixture was placed in a pot and compacted to a depth of 1.0 to 1.25 cm from the top of the pot. Seeds of each of several monocotyledonous and dicotyledonous annual plant species were placed on top of the soil. Additional soil was subsequently placed over the seeds to level-fill the pot. A known amount of each test compound dissolved or suspended in an appropriate organic solvent was diluted with a 50:50 mix of acetone and water and applied to the surface of the soil. After treatment the plants were placed in a greenhouse where they received 0.64 cm of overhead irrigation. All subsequent watering consisted of a light overhead mist and/or subirrigation as needed for germination and growth. Tables 5 and 6 below relate to warm season plant species which were placed after pre-emergence treatment in a greenhouse with a 30/21° C. day/night temperature regime. Tables 7 and 8 below relates to cool season plant species placed after pre-emergence treatment in a greenhouse or growth chamber with an 18/13° C. day/night temperature regime.
# (§4) Approximately 14 days after planting and treating, the plants were observed and herbicidal efficacy recorded as percent inhibition by comparison with untreated plants.
# (§5) The plant species usually regarded as weeds which were utilized in the tests are identified in the tables below according to the following legend, in which “d” indicates a dicotyledonous species and “m” a monocotyledonous species. All monocotyledonous species included in the tests herein are grasses.
row,SMILES,Pre-emergence activity (GR80) CONAR [g/ha]
1,O=C(N1CCCC1)n1cnc(S(=O)(=O)C(F)F)n1 [Example 24],300
2,CN(Cc1ccccc1)C(=O)n1cnc(S(=O)(=O)C(F)(F)Cl)n1 [Example 92],300

# System: POROL (common purslane)
# Assay: Pre-emergence herbicidal activity, warm season
# Format: in vivo, Portulaca oleracea
# Settings: GR80 = lowest tested rate (300, 100, 30, 10 g/ha) with 80% or greater inhibition; approx. 14 days after treating; 30/21° C.
# Method in brief: as §1
row,SMILES,Pre-emergence activity (GR80) POROL [g/ha]
1,O=C(N1CCCC1)n1cnc(S(=O)(=O)C(F)F)n1 [Example 24],100

# System: ECHCG (barnyardgrass)
# Assay: Pre-emergence herbicidal activity, warm season
# Format: in vivo, Echinochloa crus-galli
# Settings: GR80 = lowest tested rate (300, 100, 30, 10 g/ha) with 80% or greater inhibition; approx. 14 days after treating; 30/21° C.
# Method in brief: (§6)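 GR80 values derive from percent inhibition relative to untreated plants, read roughly 14 days after sowing and pre-emergence soil-surface treatment (compound in 50:50 acetone/water; rates typically 10, 30, 100, 300 g/ha). Warm-season weeds grew at 30/21° C day/night, cool-season ones at 18/13° C; an asterisk marks activity without reaching 80% at the highest rate.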
row,SMILES,Pre-emergence activity (GR80) ECHCG [g/ha]
1,COCCN(C)C(=O)n1cnc(S(=O)(=O)C(F)(F)Br)n1 [Example 40],300

# System: PANMI (wild proso millet)
# Assay: Pre-emergence herbicidal activity, warm season
# Format: in vivo, Panicum miliaceum
# Settings: GR80 = lowest tested rate (300, 100, 30, 10 g/ha) with 80% or greater inhibition; approx. 14 days after treating; 30/21° C.
# Method in brief: as §1
row,SMILES,Pre-emergence activity (GR80) PANMI [g/ha]
1,COCCN(C)C(=O)n1cnc(S(=O)(=O)C(F)(F)Br)n1 [Example 40],300

# System: SORHA (johnsongrass (seedling))
# Assay: Pre-emergence herbicidal activity, warm season
# Format: in vivo, Sorghum halepense
# Settings: GR80 = lowest tested rate (300, 100, 30, 10 g/ha) with 80% or greater inhibition; approx. 14 days after treating; 30/21° C.
# Method in brief: as §6
row,SMILES,Pre-emergence activity (GR80) SORHA [g/ha]
1,COCCN(C)C(=O)n1cnc(S(=O)(=O)C(F)(F)Br)n1 [Example 40],300

# System: SETFA (giant foxtail)
# Assay: Pre-emergence herbicidal activity, warm season
# Format: in vivo, Setaria faberi
# Settings: GR80 = lowest tested rate (300, 100, 30, 10 g/ha) with 80% or greater inhibition; approx. 14 days after treating; 30/21° C.
# Method in brief: as §6
row,SMILES,Pre-emergence activity (GR80) SETFA [g/ha]
1,COCCN(C)C(=O)n1cnc(S(=O)(=O)C(F)(F)Br)n1 [Example 40],300

# System: PANDI (fall panicum)
# Assay: Pre-emergence herbicidal activity, warm season
# Format: in vivo, Panicum dichotomiflorum
# Settings: GR80 = lowest tested rate (300, 100, 30, 10 g/ha) with 80% or greater inhibition; approx. 14 days after treating; 30/21° C.
# Experimental: as §2, §3, §4, §5
row,SMILES,Pre-emergence activity (GR80) PANDI [g/ha]
1,COCCN(C)C(=O)n1cnc(S(=O)(=O)C(F)(F)Br)n1 [Example 40],300

# System: BRAPP (broadleaf signalgrass)
# Assay: Pre-emergence herbicidal activity, warm season
# Format: in vivo, Brachiaria platyphylla
# Settings: GR80 = lowest tested rate (300, 100, 30, 10 g/ha) with 80% or greater inhibition; approx. 14 days after treating; 30/21° C.
# Method in brief: as §6
row,SMILES,Pre-emergence activity (GR80) BRAPP [g/ha]
1,O=C(N1CCCC1)n1cnc(S(=O)(=O)C(F)F)n1 [Example 24],100

# System: GALAP (catchweed bedstraw)
# Assay: Pre-emergence herbicidal activity, cool season
# Format: in vivo, Galium aparine
# Settings: lowest tested rate with 80% or greater inhibition; rates 300, 100, 30, 10 g/ha; about 14 days
# Method in brief: as §1
row,SMILES,"Pre-emergence activity GR80, GALAP"
1,O=C(N1CCCC1)n1cnc(S(=O)(=O)C(F)F)n1 [Example 24],[empty]
2,CN(C)C(=O)n1cnc(S(=O)(=O)C(F)F)n1 [Example 26],300 g/ha
3,COCCN(C)C(=O)n1cnc(S(=O)(=O)C(F)(F)Br)n1 [Example 40],[empty]
4,CN(Cc1ccccc1)C(=O)n1cnc(S(=O)(=O)C(F)(F)Cl)n1 [Example 92],[empty]

# System: POLCO (wild buckwheat)
# Assay: Pre-emergence herbicidal activity, cool season
# Format: in vivo, Polygonum convolvulus
# Settings: lowest tested rate with 80% or greater inhibition; rates 300, 100, 30, 10 g/ha; about 14 days
# Method in brief: as §1
row,SMILES,"Pre-emergence activity GR80, POLCO"
1,O=C(N1CCCC1)n1cnc(S(=O)(=O)C(F)F)n1 [Example 24],[empty]
2,CN(C)C(=O)n1cnc(S(=O)(=O)C(F)F)n1 [Example 26],300 g/ha
3,COCCN(C)C(=O)n1cnc(S(=O)(=O)C(F)(F)Br)n1 [Example 40],[empty]
4,CN(Cc1ccccc1)C(=O)n1cnc(S(=O)(=O)C(F)(F)Cl)n1 [Example 92],[empty]

# System: SINAR (wild mustard)
# Assay: Pre-emergence herbicidal activity, cool season
# Format: in vivo, Sinapis arvensis
# Settings: lowest tested rate with 80% or greater inhibition; rates 300, 100, 30, 10 g/ha; about 14 days
# Method in brief: as §1
row,SMILES,"Pre-emergence activity GR80, SINAR"
1,O=C(N1CCCC1)n1cnc(S(=O)(=O)C(F)F)n1 [Example 24],[empty]
2,CN(C)C(=O)n1cnc(S(=O)(=O)C(F)F)n1 [Example 26],[empty]
3,COCCN(C)C(=O)n1cnc(S(=O)(=O)C(F)(F)Br)n1 [Example 40],100 g/ha
4,CN(Cc1ccccc1)C(=O)n1cnc(S(=O)(=O)C(F)(F)Cl)n1 [Example 92],[empty]

# System: VERPE (creeping speedwell)
# Assay: Pre-emergence herbicidal activity, cool season
# Format: in vivo, Veronica persicaria
# Settings: lowest tested rate with 80% or greater inhibition; rates 300, 100, 30, 10 g/ha; about 14 days
# Method in brief: as §1
row,SMILES,"Pre-emergence activity GR80, VERPE"
1,O=C(N1CCCC1)n1cnc(S(=O)(=O)C(F)F)n1 [Example 24],[empty]
2,CN(C)C(=O)n1cnc(S(=O)(=O)C(F)F)n1 [Example 26],300 g/ha
3,COCCN(C)C(=O)n1cnc(S(=O)(=O)C(F)(F)Br)n1 [Example 40],100 g/ha
4,CN(Cc1ccccc1)C(=O)n1cnc(S(=O)(=O)C(F)(F)Cl)n1 [Example 92],[empty]

# System: SASKR (russian thistle)
# Assay: Pre-emergence herbicidal activity, cool season
# Format: in vivo, Salsola kali
# Settings: lowest tested rate with 80% or greater inhibition; rates 300, 100, 30, 10 g/ha; about 14 days
# Method in brief: as §1
row,SMILES,"Pre-emergence activity GR80, SASKR"
1,O=C(N1CCCC1)n1cnc(S(=O)(=O)C(F)F)n1 [Example 24],[empty]
2,CN(C)C(=O)n1cnc(S(=O)(=O)C(F)F)n1 [Example 26],300 g/ha
3,COCCN(C)C(=O)n1cnc(S(=O)(=O)C(F)(F)Br)n1 [Example 40],300 g/ha
4,CN(Cc1ccccc1)C(=O)n1cnc(S(=O)(=O)C(F)(F)Cl)n1 [Example 92],[empty]

# System: STEME (common chickweed)
# Assay: Pre-emergence herbicidal activity, cool season
# Format: in vivo, Stellaria media
# Settings: lowest tested rate with 80% or greater inhibition; rates 300, 100, 30, 10 g/ha; about 14 days
# Method in brief: as §1
row,SMILES,"Pre-emergence activity GR80, STEME"
1,O=C(N1CCCC1)n1cnc(S(=O)(=O)C(F)F)n1 [Example 24],[empty]
2,CN(C)C(=O)n1cnc(S(=O)(=O)C(F)F)n1 [Example 26],[empty]
3,COCCN(C)C(=O)n1cnc(S(=O)(=O)C(F)(F)Br)n1 [Example 40],300 g/ha
4,CN(Cc1ccccc1)C(=O)n1cnc(S(=O)(=O)C(F)(F)Cl)n1 [Example 92],[empty]

# System: LAMPU (purple deadnettle)
# Assay: Pre-emergence herbicidal activity, cool season
# Format: in vivo, Lamium purpureum
# Settings: lowest tested rate with 80% or greater inhibition; rates 300, 100, 30, 10 g/ha; about 14 days
# Method in brief: as §1
row,SMILES,"Pre-emergence activity GR80, LAMPU"
1,O=C(N1CCCC1)n1cnc(S(=O)(=O)C(F)F)n1 [Example 24],[empty]
2,CN(C)C(=O)n1cnc(S(=O)(=O)C(F)F)n1 [Example 26],300 g/ha
3,COCCN(C)C(=O)n1cnc(S(=O)(=O)C(F)(F)Br)n1 [Example 40],[empty]
4,CN(Cc1ccccc1)C(=O)n1cnc(S(=O)(=O)C(F)(F)Cl)n1 [Example 92],[empty]

# System: SETVI (green foxtail)
# Assay: Pre-emergence herbicidal activity, cool season
# Format: in vivo, Setaria viridis
# Settings: GR80 = lowest tested rate (300, 100, 30, 10 g/ha) with 80% or greater inhibition; approx. 14 days after treating; 18/13° C.
# Method in brief: as §1
row,SMILES,Pre-emergence activity (GR80) SETVI [g/ha]
1,CN(C)C(=O)n1cnc(S(=O)(=O)C(F)F)n1 [Example 26],300

# System: BROTE (downy brome)
# Assay: Pre-emergence herbicidal activity, cool season
# Format: in vivo, Bromus tectorum
# Settings: GR80 = lowest tested rate (300, 100, 30, 10 g/ha) with 80% or greater inhibition; approx. 14 days after treating; 18/13° C.
# Experimental: as §2, §3, §4, §5
row,SMILES,Pre-emergence activity (GR80) BROTE [g/ha]
1,COCCN(C)C(=O)n1cnc(S(=O)(=O)C(F)(F)Br)n1 [Example 40],100

# System: AVEFA (wild oat)
# Assay: Pre-emergence herbicidal activity, cool season
# Format: in vivo, Avena fatua
# Settings: GR80 = lowest tested rate (300, 100, 30, 10 g/ha) with 80% or greater inhibition; approx. 14 days after treating; 18/13° C.
# Experimental: as §2, §3, §4, §5
row,SMILES,Pre-emergence activity (GR80) AVEFA [g/ha]
1,CN(C)C(=O)n1cnc(S(=O)(=O)C(F)F)n1 [Example 26],300

# System: AGSST (creeping bentgrass)
# Assay: Pre-emergence herbicidal activity, cool season
# Format: in vivo, Agrostis stolonifera
# Settings: GR80 = lowest tested rate (300, 100, 30, 10 g/ha) with 80% or greater inhibition; approx. 14 days after treating; 18/13° C.
# Method in brief: as §1
row,SMILES,Pre-emergence activity (GR80) AGSST [g/ha]
1,CN(C)C(=O)n1cnc(S(=O)(=O)C(F)F)n1 [Example 26],30
2,COCCN(C)C(=O)n1cnc(S(=O)(=O)C(F)(F)Br)n1 [Example 40],30

# From patent US6461997B1, “Triazole sulfones having herbicidal activity” (Monsanto Technology LLC, priority 1999, dated 2002)
